Experiments:
[1] = test system: prostatic cancer cell line PC3; test: Apoptotic cell death by DNA fragmentation, PC3; assay type: cell-based, human; settings: ABT-263 plus 50 μM wogonin, 48 h
Protocol: (§1) The human malignant cell lines used in this study are the T cell leukemic cell lines CEM, Molt-4 and Jurkat (J16), the HL cell line KM-H2, the cervix adenocarcinoma cell line HeLa, the melanoma cell line A375, the hepatocellular carcinoma cell line HepG2, the pancreatic carcinoma cell line MiaPaca, the breast cancer cell line MCF-7, the prostatic cancer cell line PC3 and the colon carcinoma cell line HCT116. All cells were cultured in RPMI 1640 or DMEM medium (GIBCO laboratories, Grand Island, USA), supplemented with 10% FCS, 100 Units/ml penicillin (GIBCO), 100 μg/m1 streptomycin (GIBCO) and 2 mM L-glutamine (GIBCO) at 37° C. and 5%. Wogonin (BIOTREND Chemicals AG, Wangen, Switzerland), apigenin, chrysin, luteolin and baicalein (Sigma, St. Louis, USA) were solved in dimethyl sulfoxide (DMSO; Roth, Karlsruhe, Germany) at a stock concentration of 50 mM. Cells were treated with different concentrations of different flavones or ABT-263 (Selleck Chemicals, Houston, USA) for 24 to 48 h. Apoptotic cell death was examined by analysis of DNA fragmentation as previously described 23 (Fas et al.,2006, Blood 108: 3700-6). Results are presented as % specific DNA fragmentation using the formula: (percentage of experimental apoptosis-percentage of spontaneous apoptosis)/(100-percentage of spontaneous apoptosis)×100.

[2] = test system: proliferating normal peripheral blood T cells; test: Apoptotic cell death by DNA fragmentation, proliferating normal T cells; assay type: cell-based; settings: ABT-263 with wogonin, four healthy donors
Protocol: (§2) Normal T cells were isolated from peripheral blood of healthy donors and activated to proliferate as described in the Materials and Methods. The proliferating T cells were treated with different concentrations of ABT-263 in the absence or presence of wogonin as indicated. Apoptotic cell death was determined by DNA fragmentation. Results are presented as pooled data from four independent donors. (B) Proliferating normal T cells express higher levels of Mcl-1 and Bcl-2 than leukemic Jurkat and Molt-4 T cells. Total cell lysates of activated T cells from three healthy donors were compared with leukemic cells for the expression levels of Mcl-1, Bcl-2, Bcl-xL and Bcl-w. CDK6 is known to be over-expressed in many tumor cells and was used as a marker for malignant cells. Representative blots from two independent experiments are shown. […] Human platelets in 10% FCS were treated with different concentrations of ABT-263 in the absence or presence of wogonin as indicated. After 1 h treatment, apoptotic cell death was determine by staining with annexin V/FITC. Results are average of two independent assays.
Human peripheral blood T cells were prepared as described previously 23 and were more than 90% CD3 positive. For generation of proliferating T cells, freshly isolated T cells were cultured at 2×10^6 cells/ml and were activated with […] PHA overnight. Activated T cells were then washed three times and cultured for additional 5 days in the presence of 25 U/ml IL-2. Platelets were prepared as described in Vogler et al., 2011, Blood 117: 7145-54.
Wogonin (BIOTREND Chemicals AG, Wangen, Switzerland), apigenin, chrysin, luteolin and baicalein (Sigma, St. Louis, USA) were solved in dimethyl sulfoxide (DMSO; Roth, Karlsruhe, Germany) at a stock concentration of 50 mM. Cells were treated with different concentrations of different flavones or ABT-263 (Selleck Chemicals, Houston, USA) for 24 to 48 h. Apoptotic cell death was examined by analysis of DNA fragmentation as previously described 23 (Fas et al.,2006, Blood 108: 3700-6). […]

[3] = test system: melanoma cell line A375; test: Apoptotic cell death by DNA fragmentation, A375; assay type: cell-based, human; settings: ABT-263 plus 50 μM wogonin, 48 h
Protocol: as §1

[4] = test system: CEM tumors; test: CEM xenograft in immunodeficient mice; assay type: in vivo; settings: Rag2-/-/Il2rg-/- mice, s.c. CEM; ABT-263 50 mg/kg p.o. and/or wogonin 50 mg/kg i.p.
Protocol: Immunodeficient mice (Rag2−/−/II2rg−/−) were implanted subcutaneously in the dorsal flank region with CEM (5×10^7 cells). After the tumors reached to approximate 35 mm3, tumor size matched mice were treated with ABT-263 (50 mg/kg, once in each third or fourth day) in the presence or absence of 50 mg/kg wogonin. ABT-263 was formulated according to the protocol previously described 9 and administered p.o. Wogonin dissolved in DMSO was diluted in sunflower oil and administered i.p. For combination studies, ABT-263 was given 2 h before wogonin. The control group was treated in an analogous manner with the vehicle. The tumor size was measured with a micrometer caliper two to three times weekly and the tumor volume (V) was calculated by the formula V=(width2×length)/2. All protocols using and maintaining animals were approved by the German Animal Protection Authority (Office Regierungsprasidium Karlsruhe) in Karlsruhe.

[5] = test system: breast cancer cell line MCF-7; test: Apoptotic cell death by DNA fragmentation, MCF-7; assay type: cell-based, human; settings: ABT-263 plus 50 μM wogonin, 48 h
Protocol: as §1

[6] = test system: ABT-263-resistant CEM (CEM-R); test: Apoptotic cell death by DNA fragmentation, ABT-263-resistant CEM; assay type: cell-based, human; settings: CEM-R; ABT-263 with wogonin
Protocol: (§3) Wogonin (BIOTREND Chemicals AG, Wangen, Switzerland), apigenin, chrysin, luteolin and baicalein (Sigma, St. Louis, USA) were solved in dimethyl sulfoxide (DMSO; Roth, Karlsruhe, Germany) at a stock concentration of 50 mM. Cells were treated with different concentrations of different flavones or ABT-263 (Selleck Chemicals, Houston, USA) for 24 to 48 h. Apoptotic cell death was examined by analysis of DNA fragmentation as previously described 23 (Fas et al.,2006, Blood 108: 3700-6). Results are presented as % specific DNA fragmentation using the formula: (percentage of experimental apoptosis-percentage of spontaneous apoptosis)/(100-percentage of spontaneous apoptosis)×100.

[7] = test system: Human platelets; test: Platelet apoptotic cell death by annexin V/FITC staining; assay type: cell-based; settings: ABT-263 with wogonin, 1 h
Protocol: as §2
Human peripheral blood T cells were prepared as described previously 23 and were more than 90% CD3 positive. For generation of proliferating T cells, freshly isolated T cells were cultured at 2×10^6 cells/ml and were activated with 1 mg/ml PHA overnight. […]

[8] = test system: ABT-263-resistant Jurkat (Jurkat-R); test: Apoptotic cell death by DNA fragmentation, ABT-263-resistant Jurkat; assay type: cell-based, human; settings: Jurkat-R; ABT-263 with wogonin
Protocol: as §3

[9] = test system: colon carcinoma cell line HCT116; test: Apoptotic cell death by DNA fragmentation, HCT116; assay type: cell-based, human; settings: ABT-263 plus 50 μM wogonin, 48 h
Protocol: as §1

[10] = test system: CEM cells; test: Apoptotic cell death by DNA fragmentation, CEM; assay type: cell-based, human; settings: for effect on ABT-263-induced apoptosis: ABT-263 plus 10 μM flavone, 30 h
Protocol: as §1

[11] = test system: Molt-4 cells; test: Apoptotic cell death by DNA fragmentation, Molt-4; assay type: cell-based, human
Protocol: as §1

[12] = test system: hepatocellular carcinoma cell line HepG2; test: Apoptotic cell death by DNA fragmentation, HepG2; assay type: cell-based, human; settings: HepG2; ABT-263 plus 50 μM wogonin, 48 h
Protocol: as §1

[13] = test system: Jurkat (J16) cells; test: Apoptotic cell death by DNA fragmentation, Jurkat; assay type: cell-based, human
Protocol: as §1

[14] = test system: cervix adenocarcinoma cell line HeLa; test: Apoptotic cell death by DNA fragmentation, HeLa; assay type: cell-based, human; settings: ABT-263 plus 50 μM wogonin, 48 h
Protocol: as §1

[15] = test system: Mcl-1; test: Western blot analysis of Mcl-1 expression; assay type: cell-based, human; settings: for Mcl-1 protein expression: 50 μM flavone
Description: For each sample, 1×10^7 cells were lysed as previously described. 23 Equal amounts of protein were separated on 5-13% SDS-PAGE depending on the molecular sizes of the proteins and blotted onto a nitrocellulose membrane (Amersham Biosciences, Little Chalfon, UK) as previously described. 23 The following antibodies were used: Bad, Bax, Bcl-xL, Bcl-w, XIAP from Cell Signaling Technology, Danvers, USA; Bcl-2 (sc-509) and Mcl-1 (sc-819) from Santa Cruz Biotechnology, Heidelberg, Germany; Tubulin and actin from Sigma, Saint Louis, USA.

[16] = ABT-263 plus different concentrations of wogonin, 24 h
[17] = wogonin alone at the concentrations used for combination, 24 h
[18] = Jurkat 16, ABT-199 with wogonin

In the case of `COc1c(O)cc(O)c2c(=O)cc(-c3ccccc3)oc12` [wogonin, 5,7-dihydroxy-8-methoxy-2-phenyl-4H-chromen-4-one], the “effect on ABT-263-mediated apoptotic cell death” value [1] is reported as “dose-dependent increase”, the “effect on toxicity of ABT-263 to normal proliferating T cells” value [2] is reported as “did not enhance the toxicity of ABT-263” and the “effect on toxicity of ABT-263 to normal proliferating T cells” value ([2]; listed as Wogonin) is reported as “does not potentiate the toxicity of ABT-263”. For the same compound, the “effect on ABT-263-mediated apoptotic cell death” value [3] was “dose-dependent increase”, the “tumor growth / tumor response” value [4] was “no significant inhibition of tumor growth” and the “effect on ABT-263-mediated apoptotic cell death” value [5] was “dose-dependent increase”. The “re-sensitization to ABT-263-induced apoptotic cell death” value [6] was “re-sensitized to ABT-263 treatment”, the “effect on toxicity of ABT-263 to platelets” value [7] was “did not enhance the toxicity of ABT-263” and the “effect on toxicity of ABT-263 to platelets” value ([7]; listed as Wogonin) was “does not enhance the toxicity of ABT-263”. For the same compound, the “re-sensitization to ABT-263-induced apoptotic cell death” value [8] was “re-sensitized to ABT-263 treatment”, the “effect on ABT-263-mediated apoptotic cell death” value [9] was “dose-dependent increase” and the “reduction of the ABT-199 dose” value ([10]; ABT-199 with wogonin) was “approx. 5 fold”. For the same compound, the “sensitization to ABT-199-mediated apoptosis” value ([10]; ABT-199 with wogonin) was “sensitized”, the “effect on killing efficacy of ABT-263” value [10, 16] was “enhanced the killing efficacy of ABT-263 in a dose-dependent manner” and the “reduction of ABT-263 dose required for inducing 50-70% cell death” value (“reduction … for inducing 50-70% cell death” below) ([10]; in presence of wogonin) was “approximately 10 times”. The “cell death by wogonin alone” value [10, 17] was “only minimal cell death”, the “reduction of the ABT-199 dose” value ([11]; ABT-199 with wogonin) was “approx. 5 fold” and the “sensitization to ABT-199-mediated apoptosis” value ([11]; ABT-199 with wogonin) was “sensitized”. The “effect on killing efficacy of ABT-263” value [11, 16] was “enhanced the killing efficacy of ABT-263 in a dose-dependent manner”, the “reduction … for inducing 50-70% cell death” value ([11]; in presence of wogonin) was “approximately 10 times” and the “cell death by wogonin alone” value [11, 17] was “only minimal cell death”. For the same compound, the “effect on ABT-263-mediated apoptotic cell death” value [12] was “dose-dependent increase”, the “reduction of the ABT-199 dose” value [13, 18] was “approx. 5 fold” and the “sensitization to ABT-199-mediated apoptosis” value [13, 18] was “sensitized”. The “effect on killing efficacy of ABT-263” value ([13]; Jurkat, ABT-263 plus different concentrations of wogonin, 24 h) was “enhanced the killing efficacy of ABT-263 in a dose-dependent manner”, the “reduction … for inducing 50-70% cell death” value ([13]; Jurkat, in presence of wogonin) was “approximately 10 times” and the “cell death by wogonin alone” value ([13]; Jurkat, wogonin alone at the concentrations used for combination, 24 h) was “only minimal cell death”. For the same compound, the “effect on ABT-263-mediated apoptotic cell death” value [14] was “dose-dependent increase”, the Mcl-1 expression ([15]; ABT-263-resistant Jurkat and CEM, wogonin) was “significantly inhibited Mcl-1 expression” and the Mcl-1 expression ([15]; CEM, Jurkat and Molt-4, 50 μM wogonin, 8 h) was “down-regulation of Mcl-1 expression”. For the same compound, the Mcl-1 expression ([15]; CEM, Jurkat and Molt-4, 50 μM wogonin, 8 h, listed as Wogonin) was “down-regulates Mcl-1 expression” and the Mcl-1 expression ([15]; all tumor cell lines tested other than MiaPaca, 50 μM wogonin, 8 h) was “down-regulated”.
With `O=c1cc(-c2ccccc2)oc2cc(O)cc(O)c12` [chrysin] the “effect on ABT-263-induced apoptosis” value [10] was “enhance ABT-263-induced apoptosis in CEM cells in a dose-dependent manner” and the Mcl-1 protein expression ([15]; CEM, 8 h) was “Down-regulation of Mcl-1 protein expression”.
In the case of `O=c1cc(-c2ccc(O)cc2)oc2cc(O)cc(O)c12` [Apigenin], the “effect on ABT-263-induced apoptosis” value [10] is reported as “enhance ABT-263-induced apoptosis in CEM cells in a dose-dependent manner” and the Mcl-1 protein expression ([15]; CEM, 8 h) is reported as “Down-regulation of Mcl-1 protein expression”.
For `O=c1cc(-c2ccccc2)oc2cc(O)c(O)c(O)c12` [baicalein], the “effect on ABT-263-induced apoptosis” value [10] was “enhance ABT-263-induced apoptosis in CEM cells in a dose-dependent manner” and the Mcl-1 protein expression ([15]; CEM, 8 h) was “Down-regulation of Mcl-1 protein expression”.
For `O=c1cc(-c2ccc(O)c(O)c2)oc2cc(O)cc(O)c12` [luteolin], the “effect on ABT-263-induced apoptosis” value [10] was “enhance ABT-263-induced apoptosis in CEM cells in a dose-dependent manner” and the Mcl-1 protein expression ([15]; CEM, 8 h) was “Down-regulation of Mcl-1 protein expression”.
For `CC1(C)CCC(CN2CCN(c3ccc(C(=O)NS(=O)(=O)c4ccc(NCC5CCOCC5)c([N+](=O)[O-])c4)c(Oc4cnc5[nH]ccc5c4)c3)CC2)=C(c2ccc(Cl)cc2)C1` [ABT-199, 4-[4-[[2-(4-chlorophenyl)-4,4-dimethyl-1-cyclohexen-1-yl]methyl]-1-piperazinyl]-N-[[3-nitro-4-[[(tetrahydro-2H-pyran-4-yl)methyl]amino]phenyl]sulfonyl]-2-(1H-pyrrolo[2,3-b]pyridin-5-yloxy)-Benzamide], the EC50 ([10]; Homo sapiens, CCRF-CEM, ABT-199 alone, read-out: concentration inducing 50% apoptotic cell death) was 5 to 10 µM, the EC50 ([11]; Homo sapiens, ABT-199 alone, read-out: concentration inducing 50% apoptotic cell death) was 5 to 10 µM and the EC50 ([13]; Homo sapiens, Jurkat 16, ABT-199 alone, read-out: concentration inducing 50% apoptotic cell death) was 5 to 10 µM.

— patent US20160158189A1, “SENSITIZATION OF CANCER CELLS TO APOPTOSIS INDUCTION BY FLAVAGLINES AND 5-HYDROXY-FLAVONES” (DEUTSCHES KREBSFORSCHUNGSZENTRUM, priority 2013, published 2016)
